The CheMixHub viscosity set
± gives the uncertainty stated by the source.

Experiment: xn = mol fraction of the nth substance listed

O=CN1CCOCC1 + Brc1ccccc1
viscosity [mPa·s], 101 kPa
Conditions | x1 = 0.1046 | x1 = 0.2081 | x1 = 0.3106 | x1 = 0.412 | x1 = 0.5124 | x1 = 0.6119 | x1 = 0.7103 | x1 = 0.8078 | x1 = 0.9044
303.15 K | 1.051 ± 0.033 | 1.188 ± 0.037 | 1.392 ± 0.043 | 1.666 ± 0.051 | 2.029 ± 0.061 | 2.502 ± 0.074 | 3.141 ± 0.092 | 3.952 ± 0.11 | 5.052 ± 0.14
308.15 K | 1.002 ± 0.032 | 1.119 ± 0.035 | 1.297 ± 0.04 | 1.538 ± 0.047 | 1.858 ± 0.056 | 2.274 ± 0.067 | 2.809 ± 0.082 | 3.511 ± 0.1 | 4.419 ± 0.13
313.15 K | 0.953 ± 0.031 | 1.057 ± 0.033 | 1.22 ± 0.038 | 1.442 ± 0.044 | 1.727 ± 0.052 | 2.105 ± 0.062 | 2.585 ± 0.076 | 3.211 ± 0.093 | 4.012 ± 0.11

C=C(C)C(=O)OCCCC + C1CCCCC1
viscosity [mPa·s], 101 kPa
Conditions | 298.15 K | 308.15 K
x1 = 0.056 | 0.866 ± 0.087 | 0.737 ± 0.074
x1 = 0.1555 | 0.835 ± 0.084 | 0.711 ± 0.072
x1 = 0.2562 | 0.812 ± 0.082 | 0.692 ± 0.07
x1 = 0.3534 | 0.797 ± 0.08 | 0.68 ± 0.068
x1 = 0.4548 | 0.789 ± 0.079 | 0.673 ± 0.068
x1 = 0.4924 | 0.788 ± 0.079 | 0.673 ± 0.068
x1 = 0.5528 | 0.788 ± 0.079 | 0.673 ± 0.068
x1 = 0.6497 | 0.794 ± 0.08 | 0.678 ± 0.068
x1 = 0.7645 | 0.81 ± 0.081 | 0.692 ± 0.069
x1 = 0.8529 | 0.83 ± 0.083 | 0.708 ± 0.071
x1 = 0.9568 | 0.861 ± 0.086 | 0.735 ± 0.074

NCc1ccccc1 + C1CCOC1
303.15 K, 101 kPa
Conditions | viscosity [mPa·s]
x1 = 0.0768 | 0.522 ± 0.011
x1 = 0.1577 | 0.576 ± 0.012
x1 = 0.2429 | 0.636 ± 0.014
x1 = 0.333 | 0.705 ± 0.015
x1 = 0.4282 | 0.785 ± 0.017
x1 = 0.529 | 0.876 ± 0.019
x1 = 0.636 | 0.981 ± 0.021
x1 = 0.7497 | 1.104 ± 0.024
x1 = 0.8708 | 1.247 ± 0.027

NCc1ccccc1 + C1COCCO1
303.15 K, 101 kPa
Conditions | viscosity [mPa·s]
x1 = 0.0802 | 1.116 ± 0.024
x1 = 0.164 | 1.158 ± 0.024
x1 = 0.2516 | 1.199 ± 0.025
x1 = 0.3434 | 1.238 ± 0.026
x1 = 0.4396 | 1.276 ± 0.027
x1 = 0.5406 | 1.311 ± 0.028
x1 = 0.6467 | 1.343 ± 0.028
x1 = 0.7584 | 1.372 ± 0.029
x1 = 0.8759 | 1.396 ± 0.029

C=C(C)C(=O)OCCCC + CC#N
viscosity [mPa·s], 101 kPa
Conditions | 298.15 K | 303.15 K | 308.15 K | 313.15 K | 318.15 K
x2 = 0.0681 | 0.8436 ± 0.018 | 0.7784 ± 0.017 | 0.7223 ± 0.015 | 0.6777 ± 0.014 | 0.6423 ± 0.014
x2 = 0.1359 | 0.8101 ± 0.017 | 0.7487 ± 0.016 | 0.6958 ± 0.015 | 0.6537 ± 0.014 | 0.6202 ± 0.013
x2 = 0.1976 | 0.7793 ± 0.017 | 0.7213 ± 0.015 | 0.6713 ± 0.014 | 0.6314 ± 0.013 | 0.5995 ± 0.013
x2 = 0.2728 | 0.7411 ± 0.016 | 0.6872 ± 0.015 | 0.6407 ± 0.014 | 0.6035 ± 0.013 | 0.5735 ± 0.012
x2 = 0.3442 | 0.7043 ± 0.015 | 0.6543 ± 0.014 | 0.6111 ± 0.013 | 0.5764 ± 0.012 | 0.5483 ± 0.012
x2 = 0.4143 | 0.6677 ± 0.014 | 0.6215 ± 0.013 | 0.5815 ± 0.012 | 0.5492 ± 0.012 | 0.5229 ± 0.011
x2 = 0.4658 | 0.6405 ± 0.014 | 0.5971 ± 0.013 | 0.5594 ± 0.012 | 0.5289 ± 0.011 | 0.5039 ± 0.011
x2 = 0.5243 | 0.6094 ± 0.013 | 0.5691 ± 0.012 | 0.534 ± 0.011 | 0.5055 ± 0.011 | 0.482 ± 0.01
x2 = 0.5649 | 0.5876 ± 0.013 | 0.5495 ± 0.012 | 0.5162 ± 0.011 | 0.4891 ± 0.01 | 0.4665 ± 0.0099
x2 = 0.639 | 0.5475 ± 0.012 | 0.5133 ± 0.011 | 0.4834 ± 0.01 | 0.4587 ± 0.0097 | 0.4379 ± 0.0093
x2 = 0.7112 | 0.508 ± 0.011 | 0.4776 ± 0.01 | 0.4508 ± 0.0096 | 0.4285 ± 0.0091 | 0.4095 ± 0.0087
x2 = 0.7836 | 0.468 ± 0.0099 | 0.4413 ± 0.0094 | 0.4178 ± 0.0089 | 0.3978 ± 0.0085 | 0.3805 ± 0.0081
x2 = 0.8558 | 0.4277 ± 0.0091 | 0.4048 ± 0.0086 | 0.3844 ± 0.0082 | 0.3668 ± 0.0078 | 0.3512 ± 0.0075
x2 = 0.928 | 0.3871 ± 0.0082 | 0.3679 ± 0.0078 | 0.3506 ± 0.0075 | 0.3353 ± 0.0072 | 0.3214 ± 0.0069

CCC(=O)c1ccccc1 + CC#N
308.15 K, 101 kPa
Conditions | viscosity [mPa·s]
x1 = 0.0418 | 0.3347 ± 0.013
x1 = 0.0922 | 0.3774 ± 0.015
x1 = 0.1459 | 0.4272 ± 0.016
x1 = 0.2084 | 0.4875 ± 0.018
x1 = 0.2804 | 0.5679 ± 0.02
x1 = 0.3757 | 0.6605 ± 0.023
x1 = 0.4796 | 0.7806 ± 0.026
x1 = 0.6093 | 0.9478 ± 0.031
x1 = 0.7791 | 1.188 ± 0.038
x1 = 0.9397 | 1.426 ± 0.044

OCCO + CC#N
viscosity [mPa·s], 100 kPa
Conditions | x2 = 0.1016 | x2 = 0.2004 | x2 = 0.3019 | x2 = 0.3984 | x2 = 0.4901 | x2 = 0.6353 | x2 = 0.6987 | x2 = 0.8061 | x2 = 0.8984
293.15 K | 13 ± 2.6 | 8.4 ± 1.7 | 5.53 ± 1.1 | 3.48 ± 0.7 | 2.4 ± 0.48 | 1.35 ± 0.27 | 1.06 ± 0.21 | 0.71 ± 0.14 | 0.51 ± 0.1
298.15 K | 11.2 ± 2.2 | 7.41 ± 1.5 | 4.87 ± 0.98 | 3.19 ± 0.64 | 2.21 ± 0.44 | 1.25 ± 0.25 | 0.98 ± 0.2 | 0.66 ± 0.13 | 0.48 ± 0.1
303.15 K | 9.25 ± 1.9 | 6.17 ± 1.2 | 4.25 ± 0.85 | 2.85 ± 0.57 | 2.01 ± 0.4 | 1.17 ± 0.23 | 0.93 ± 0.19 | 0.63 ± 0.13 | 0.45 ± 0.09

S=C=S + CC(C)=O
viscosity [mPa·s]
Conditions | 293.15 K | 298.15 K
101 kPa, x1 = 0.035 | 0.32 ± 0.004 | 0.3065 ± 0.0035
101 kPa, x1 = 0.107 | 0.316 ± 0.004 | 0.3025 ± 0.0035
101 kPa, x1 = 0.167 | 0.315 ± 0.004 | 0.3015 ± 0.0035
101 kPa, x1 = 0.202 | 0.314 ± 0.004 | 0.301 ± 0.004
101 kPa, x1 = 0.304 | 0.316 ± 0.004 | 0.3015 ± 0.0035
101 kPa, x1 = 0.408 | 0.319 ± 0.004 | –
101 kPa, x1 = 0.498 | 0.324 ± 0.004 | 0.31 ± 0.004
101 kPa, x1 = 0.633 | 0.3325 ± 0.0038 | 0.3185 ± 0.0036
101 kPa, x1 = 0.762 | 0.343 ± 0.004 | –
101 kPa, x1 = 0.89 | 0.354 ± 0.004 | 0.3365 ± 0.0038
101.33 kPa, x2 = 0.1384 | – | 0.3361 ± 0.0084
101.33 kPa, x2 = 0.2716 | – | 0.3258 ± 0.0082
101.33 kPa, x2 = 0.3443 | – | 0.3242 ± 0.0081
101.33 kPa, x2 = 0.4624 | – | 0.3103 ± 0.0078
101.33 kPa, x2 = 0.5524 | – | 0.3035 ± 0.0076
101.33 kPa, x2 = 0.6431 | – | 0.3003 ± 0.0075
101.33 kPa, x2 = 0.7358 | – | 0.2975 ± 0.0075
101.33 kPa, x2 = 0.8389 | – | 0.2974 ± 0.0075
101.33 kPa, x2 = 0.9171 | – | 0.2993 ± 0.0075

NCc1ccccc1 + CC(C)CCO
viscosity [mPa·s], 101.33 kPa
Conditions | x1 = 0.0999 | x1 = 0.1999 | x1 = 0.3 | x1 = 0.4 | x1 = 0.5 | x1 = 0.6 | x1 = 0.7 | x1 = 0.8 | x1 = 0.9
298.15 K | 3.425 ± 0.043 | 3.149 ± 0.04 | 2.901 ± 0.037 | 2.684 ± 0.034 | 2.474 ± 0.031 | 2.284 ± 0.029 | 2.103 ± 0.026 | 1.941 ± 0.024 | 1.806 ± 0.022
303.15 K | 2.914 ± 0.037 | 2.672 ± 0.034 | 2.455 ± 0.031 | 2.259 ± 0.029 | 2.099 ± 0.026 | 1.937 ± 0.024 | 1.803 ± 0.023 | 1.683 ± 0.021 | 1.582 ± 0.02
308.15 K | 2.536 ± 0.032 | 2.319 ± 0.029 | 2.142 ± 0.027 | 1.979 ± 0.025 | 1.833 ± 0.023 | 1.706 ± 0.021 | 1.602 ± 0.02 | 1.51 ± 0.019 | 1.441 ± 0.018
